Converted amounts (≈) assume the structure as drawn. Where two headings read alike, the source gives them in different places.
Columns and labels:
[1] = cited from earlier work; for undesirable side effects: clinical
[2] = system: DNA type viruses such as herpes simplex and vaccinia; conditions: clinical use; cited from earlier work
[3] = system: vaccinia virus IHD strain; assay: microbe, parasite or virus in culture; type: cell-based; conditions: for MIC: Orthopoxvirus vaccinia, in Gallus gallus, 72 h, read-out: minimum inhibitory concentration (MIC); for Chemotherapeutic index (MTC/MIC): chick embryo fibroblast cells, 4320 min
[4] = Acute toxicity in mice, intraperitoneal; type: in vivo, mice (ddN strain); conditions: for No. of survivors/No. of tested: 7 days observation
Description: The compounds of the present invention are not only very effective but also show no side effects. For example, acute toxicity of the present compound by the intraperitoneal injection in mice is remarkably lower than Methisazone as shown in Table III.
animals: male mice weighing 17 to 20 g of ddN strain
administration: intraperitoneally, suspension in 0.5% carboxymethyl
observation period: 7 days after an administration

[5] = system: vaccinia virus IHD strain; type: in vivo, mice (ICR strain); conditions: -2 to 100 hours after virus challenge, 12 days observation; for Survival rate, PO: 100 mg/kg orally; for Survival rate, SC: 100 mg/kg subcutaneously
[6] = Toxic effects in chick embryo fibroblast cell culture (minimum toxic concentration); conditions: chicken, chick embryo fibroblast cells
[7] = system: parainfluenza virus type 1, Sendai virus; assay: Effects on parainfluenza virus multiplication in chick embryo fibroblast cell culture (haemagglutinating titration); type: cell-based; conditions: 2 days at 37° C, non-medicated control 32
Description: Effects on parainfluenza virus multiplication in chick embryo fibroblast cell culture.
A general procedure of haemagglutinating titration was employed. Monolayers of chick embryo fibroblast cells were prepared by the same procedure as described in Example 12. Parainfluenza virus type 1, haemagglutinating virus of Japan (HVJ), so called Sendai virus was challenged on 3rd day monolayer cell sheet. […] After 2 days' incubation at 37° C., the cells were harvested, disrupted by freezing and thawing and centrifuged. The haemagglutinating titre of the supernatant was assayed using 1% guinea pig red blood cell as usual.
cells: chick embryo fibroblast cell
virus: parainfluenza virus type 1, Sendai virus

[8] = system: adeno virus type 8 Kanehisa strain; conditions: concentration 40; 5th day after infection; non-medicated control 512
[9] = system: Influenza virus NWS strain; type: in vivo, mice (ICR strain); conditions: 14 days observation, control 1/8
[10] = system: herpes simplex virus HF strain; assay: Effects on herpes simplex virus multiplication in chick embryo fibroblast cell culture (plaque reduction); type: cell-based; conditions: 5 μg/ml, 4 days at 37° C; for Average number of plaques: non-medicated control 45; for inhibition at 5 µg/mL: Fibroblast, 96 h, read-out: Percentage inhibition of occurrences of plaques
Description: Effects on herpes simplex virus multiplication in chick embryo fibroblast cell culture.
A general procedure of plaque-reduction method was employed. Monolayers of chick embryo fibroblast cells were prepared by a general procedure, i.e., trypsinization of 10 day old chick embryo and then 2 days' incubation in Eagle's minimum essential medium (Eagle's MEM) containing a 5% calf serum at 37° C. in a plaque tube. Then, growth medium was discarded and about 100 plaque forming units (PFU) of herpes simplex virus HF strain per plaque tube were challenged. […] After 4 day's incubation at 37° C., the number of plaques was counted and compared with the controlled plaque tube without test compounds.
cells: chick embryo fibroblast cells
virus: herpes simplex virus HF strains
observation: by counting the number of plaques after 4 days' incubation

## NC12CC3CC(CC(C3)C1)C2 [Amantadine]
[1]
  undesirable side effects: severe side effect on central nervous system

## O=c1[nH]c(=O)n([C@H]2C[C@H](O)[C@@H](CO)O2)cc1I [Idoxuridine]
[1]; clinical use
  toxicity limiting use: it can only be used by topical application because of its toxicity
[2]
  antiviral spectrum: only effective against DNA type viruses such as herpes simplex and vaccinia

## CN1C(=O)C(=NNC(N)=S)c2ccccc21 [Methisazone, 1-methylindole-2,3-dione 3-thiosemicarbazone, reference compound]
[3]
  MIC: 5 µg/mL (≈ 21.3 µM)
[3]; vaccinia virus IHD strain, 1.1 × 10^4 PFU/tube, CPE after 3 days' incubation at 37° C
  minimum inhibitory concentration (MIC): 5 µg/mL (≈ 21.3 µM)
[3]; vaccinia virus
  Chemotherapeutic index (MTC/MIC): 4
[1]
  undesirable side effects: severe vomiting, dermatitis and jaundice
[4]; 1000 mg/kg intraperitoneally
  No. of survivors/No. of tested: 3/5
[4]; 2000 mg/kg intraperitoneally
  No. of survivors/No. of tested: 0/5
[4]; mice of the acute toxicity test
  gastro-duodenal hemorrhage and intestinal ulceration: Severe gastro-duodenal hemorrhage and intestinal ulceration were observed in dead mice
[5]
  Survival rate, PO: 100%
  Survival rate, SC: 100%
[6]
  MCC at 72 h: 20 µg/mL

## O=c1nc(-c2ccccc2)c2cc([N+](=O)[O-])ccc2n1CC1CCCCCC1 [compound 1]
[3]
  MIC: 0.1 µg/mL (≈ 0.265 µM)
[3]; vaccinia virus
  Chemotherapeutic index (MTC/MIC): 1000
[6]
  MCC at 72 h: 100 µg/mL

## O=c1nc(-c2ccccc2)c2cc([N+](=O)[O-])ccc2n1C1CCCCC1 [compound 2]
[3]
  MIC: 0.1 µg/mL (≈ 0.286 µM)
[3]; vaccinia virus
  Chemotherapeutic index (MTC/MIC): 1000
[7]; 12.5 μg/ml
  Haemagglutinating titre: 4
[7]; 25 μg/ml
  Haemagglutinating titre: 2
[6]
  MCC at 72 h: 100 µg/mL

## O=c1nc(-c2ccccc2)c2cc([N+](=O)[O-])ccc2n1CC1CCCCC1 [compound 3]
[3]
  MIC: 0.1 µg/mL (≈ 0.275 µM)
[3]; vaccinia virus
  Chemotherapeutic index (MTC/MIC): 1000
[8]
  Haemagglutinating titre: 32
[5]
  Survival rate, PO: 100%
  Survival rate, SC: 100%
[6]
  MCC at 72 h: 100 µg/mL

## O=c1nc(-c2ccccc2)c2cc([N+](=O)[O-])ccc2n1CC1CCCCCCC1 [compound 4]
[3]
  MIC: 0.1 µg/mL (≈ 0.255 µM)
[3]; vaccinia virus
  Chemotherapeutic index (MTC/MIC): 1000
[6]
  MCC at 72 h: 100 µg/mL

## O=c1nc(-c2ccccc2)c2cc([N+](=O)[O-])ccc2n1CC1CCCCO1 (centres unmarked) [compound 5]
[3]
  MIC: 0.2 µg/mL (≈ 0.547 µM)
  Chemotherapeutic index (MTC/MIC): > 500
[9]; 10 mg/kg subcutaneously
  Survival rate: 4/8
[9]; 50 mg/kg subcutaneously
  Survival rate: 6/8
[10]
  Average number of plaques: 9
  inhibition at 5 µg/mL: 80%
[7]; 12.5 μg/ml
  Haemagglutinating titre: 4
[7]; 25 μg/ml
  Haemagglutinating titre: < 2
[8]
  Haemagglutinating titre: 64
[4]; 1000 mg/kg intraperitoneally
  No. of survivors/No. of tested: 5/5
[4]; 2000 mg/kg intraperitoneally
  No. of survivors/No. of tested: 4/5
[5]
  Survival rate, SC: 100%
[6]
  MCC at 72 h: > 100 µg/mL

## O=c1nc(-c2ccccc2)c2cc([N+](=O)[O-])ccc2n1Cc1ccccn1 [compound 6]
[3]
  MIC: 0.2 µg/mL (≈ 0.558 µM)
[3]; vaccinia virus
  Chemotherapeutic index (MTC/MIC): 250
[6]
  MCC at 72 h: 50 µg/mL

## O=c1nc(-c2ccccc2)c2cc([N+](=O)[O-])ccc2n1CC1CCCC1 [compound 7]
[3]
  MIC: 0.2 µg/mL (≈ 0.572 µM)
[3]; vaccinia virus
  Chemotherapeutic index (MTC/MIC): > 500
[6]
  MCC at 72 h: > 100 µg/mL

## O=c1nc(-c2ccccc2)c2cc([N+](=O)[O-])ccc2n1Cc1ccccc1Cl [compound 8]
[3]
  MIC: 0.25 µg/mL (≈ 0.638 µM)
[3]; vaccinia virus
  Chemotherapeutic index (MTC/MIC): 20
[6]
  MCC at 72 h: 5 µg/mL

## Cc1ccccc1Cn1c(=O)nc(-c2ccccc2)c2cc([N+](=O)[O-])ccc21 [compound 9]
[3]
  MIC: 0.25 µg/mL (≈ 0.673 µM)
[3]; vaccinia virus
  Chemotherapeutic index (MTC/MIC): 20
[10]
  Average number of plaques: 2
  inhibition at 5 µg/mL: 96%
[6]
  MCC at 72 h: 5 µg/mL

## O=c1nc(-c2cccs2)c2cc([N+](=O)[O-])ccc2n1CC1CCCCO1 (centres unmarked) [compound 10]
[3]
  MIC: 0.4 µg/mL (≈ 1.08 µM)
[3]; vaccinia virus
  Chemotherapeutic index (MTC/MIC): > 250
[6]
  MCC at 72 h: > 100 µg/mL

## O=c1nc(-c2ccccc2)c2cc([N+](=O)[O-])ccc2n1Cc1ccccc1 [compound 11]
[3]
  MIC: 0.6 µg/mL (≈ 1.68 µM)
[3]; vaccinia virus
  Chemotherapeutic index (MTC/MIC): 40
[5]
  Survival rate, SC: 100%
[6]
  MCC at 72 h: 25 µg/mL

## O=c1nc(-c2ccccc2)c2cc([N+](=O)[O-])ccc2n1Cc1cccs1 [compound 12]
[3]
  MIC: 0.6 µg/mL (≈ 1.65 µM)
[3]; vaccinia virus
  Chemotherapeutic index (MTC/MIC): 80
[6]
  MCC at 72 h: 50 µg/mL

## O=c1nc(-c2ccccc2)c2cc([N+](=O)[O-])ccc2n1Cc1ccco1 [compound 13]
[3]
  MIC: 1 µg/mL (≈ 2.88 µM)
[3]; vaccinia virus
  Chemotherapeutic index (MTC/MIC): 100
[6]
  MCC at 72 h: 100 µg/mL

## O=c1nc(-c2ccccc2)c2cc([N+](=O)[O-])ccc2n1CC1CCCO1 (centres unmarked) [compound 14]
[3]
  MIC: 1.25 µg/mL (≈ 3.56 µM)
[3]; vaccinia virus
  Chemotherapeutic index (MTC/MIC): > 80
[8]
  Haemagglutinating titre: 32
[4]; 1000 mg/kg intraperitoneally
  No. of survivors/No. of tested: 5/5
[4]; 2000 mg/kg intraperitoneally
  No. of survivors/No. of tested: 4/5
[5]
  Survival rate, SC: 100%
[6]
  MCC at 72 h: > 100 µg/mL

## O=c1nc(-c2ccccc2)c2cc([N+](=O)[O-])ccc2n1CCC1CCCCC1 [compound 15]
[3]
  MIC: 5 µg/mL (≈ 13.2 µM)
[3]; vaccinia virus
  Chemotherapeutic index (MTC/MIC): > 20
[6]
  MCC at 72 h: > 100 µg/mL

## CCN(CC)C(=O)Cn1c(=O)nc(-c2ccccc2)c2cc([N+](=O)[O-])ccc21 [compound 17]
[3]
  MIC: 5 µg/mL (≈ 13.1 µM)
[3]; vaccinia virus
  Chemotherapeutic index (MTC/MIC): > 20
[6]
  MCC at 72 h: > 100 µg/mL

## O=c1nc(-c2ccccc2)c2cc([N+](=O)[O-])ccc2n1CC1CC1 [compound 18]
[3]
  MIC: 5 µg/mL (≈ 15.6 µM)
[3]; vaccinia virus
  Chemotherapeutic index (MTC/MIC): > 20
[6]
  MCC at 72 h: > 100 µg/mL

## CCOCCn1c(=O)nc(-c2ccccc2)c2cc([N+](=O)[O-])ccc21 [compound 19]
[3]
  MIC: 5 µg/mL (≈ 14.7 µM)
[3]; vaccinia virus
  Chemotherapeutic index (MTC/MIC): > 20
[6]
  MCC at 72 h: > 100 µg/mL

## O=c1nc(-c2ccccc2Cl)c2cc([N+](=O)[O-])ccc2n1CC1CC1 [compound 20]
[3]
  MIC: 5 µg/mL (≈ 14.1 µM)
[3]; vaccinia virus
  Chemotherapeutic index (MTC/MIC): 10
[6]
  MCC at 72 h: 50 µg/mL

## O=c1nc(C2CCCCC2)c2cc([N+](=O)[O-])ccc2n1CC1CC1 [compound 21]
[3]
  MIC: 5 µg/mL (≈ 15.3 µM)
[3]; vaccinia virus
  Chemotherapeutic index (MTC/MIC): 10
[6]
  MCC at 72 h: 50 µg/mL

## CSCn1c(=O)nc(-c2ccccc2)c2cc([N+](=O)[O-])ccc21 [compound 22]
[3]
  MIC: 5 µg/mL (≈ 15.3 µM)
[3]; vaccinia virus
  Chemotherapeutic index (MTC/MIC): 10
[6]
  MCC at 72 h: 50 µg/mL
